# In patent US9518018B2, “3-alkoxy, thioalkyl and amino-4-amino-6-(substituted)picolinates and their use as herbicides” (Dow AgroSciences LLC, priority 2011, dated 2016):
# System: desired test plant species
# Test: Foliar-applied postemergence herbicidal activity in direct seeded rice (Table 6)
# Assay type: in vivo
# Settings: 21 DAA
# Description: Seeds or nutlets of the desired test plant species were planted in a soil matrix prepared by mixing a loam soil (43 percent silt, 19 percent clay, and 38 percent sand, with a pH of about 8.1 and an organic matter content of about 1.5 percent) and river sand in an 80 to 20 ratio. The soil matrix was contained in plastic pots with a surface area of 139.7 cm^2. When required to ensure good germination and healthy plants, a fungicide treatment and/or other chemical or physical treatment was applied. The plants were grown for 10-17 d in a greenhouse with an approximate 14-h photoperiod which was maintained at about 29° C. during the day and 26° C. during the night. Nutrients and water were added on a regular basis and supplemental lighting was provided with overhead metal halide 1000-Watt lamps as necessary. The plants were employed for testing when they reached the second or third true leaf stage. Treatments consisted of compounds 45, 34, and 66. Weighed amounts of technical compounds were placed in individual 25 mL glass vials and dissolved in 8 mL of 97:3 v/v acetone-DMSO to obtain stock solutions. […] The spray application solutions were prepared by removing 4 mL of the stock solution and diluting with 4 mL of 97:3 v/v acetone-DMSO and continued serial dilution to obtain 1⁄2×, 1⁄4×, 1⁄8×, and 1/16× rates of the high rate. Spray solutions were diluted to the appropriate final concentrations with the addition of 8 mL of an aqueous mixture of 1.875% (v/v) Agri-dex crop oil concentrate. The final 12-mL spray solutions each contained 1.25% (v/v) Agri-dex crop oil concentrate, 32.3% acetone, and 1.0% DMSO. Compound requirements are based upon a 12 mL application volume at a rate of 187 L/ha. Spray solutions were applied to the plant material with an overhead Mandel track sprayer equipped with […] nozzles calibrated to deliver 187 L/ha over an application area of 0.503 square meters (m^2) at a spray height of 18 inches ([…]) above average plant canopy height. Control plants were sprayed in the same manner with the solvent blank. The treated plants and control plants were placed in a greenhouse as described above and watered by sub-irrigation to prevent wash-off of the test compounds. After approximately 3 weeks, the condition of the test plants, compared with that of the untreated plants, was determined visually and scored on a scale of 0 to 100 percent where 0 corresponds to no injury and 100 corresponds to complete kill. By applying the well-accepted probit analysis as described by J. Berkson in Journal of the […], 48, 565 (1953) and by D. Finney in “Probit Analysis” Cambridge University Press (1952) or by plotting the mean data and fitting a logarithmic curve to the portion of the data where there was a dose response using Microsoft Excel®, the above data can be used to calculate GR50 and GR90 values, which are defined as growth reduction factors that correspond to the effective dose of herbicide required to kill or control 50 percent or 90 percent, respectively, of a target plant.
smiles,measurement,setting,value
"COc1c(C(=O)O)nc(-c2ccc(Cl)c(OC)c2F)c(F)c1N [Compound 45, 4-amino-6-(4-chloro-2-fluoro-3-methoxyphenyl)-5-fluoro-3-methoxypicolinic acid]",Mean Visual Injury (%)-21 Days After Application AESSE,"AESSE (Aeschynomene sensitiva, sensitive jointvetch), 4.38 g ae/ha",100%
same,Mean Visual Injury (%)-21 Days After Application AESSE,"AESSE (Aeschynomene sensitiva, sensitive jointvetch), 8.75 g ae/ha",100%
same,Mean Visual Injury (%)-21 Days After Application AESSE,"AESSE (Aeschynomene sensitiva, sensitive jointvetch), 17.5 g ae/ha",100%
same,Mean Visual Injury (%)-21 Days After Application AESSE,"AESSE (Aeschynomene sensitiva, sensitive jointvetch), 35 g ae/ha",100%
same,Mean Visual Injury (%)-21 Days After Application AESSE,"AESSE (Aeschynomene sensitiva, sensitive jointvetch), 70 g ae/ha",100%
same,GR50 AESSE,"AESSE (Aeschynomene sensitiva, sensitive jointvetch), dose to kill or control 50 percent",<4.38 g ae/ha
same,GR90 AESSE,"AESSE (Aeschynomene sensitiva, sensitive jointvetch), dose to kill or control 90 percent",<4.38 g ae/ha
same,Mean Visual Injury (%)-21 Days After Application BRAPP,"BRAPP (Brachiaria platyphylla, broadleaf signalgrass), 4.38 g ae/ha",72%
same,Mean Visual Injury (%)-21 Days After Application BRAPP,"BRAPP (Brachiaria platyphylla, broadleaf signalgrass), 8.75 g ae/ha",80%
same,Mean Visual Injury (%)-21 Days After Application BRAPP,"BRAPP (Brachiaria platyphylla, broadleaf signalgrass), 17.5 g ae/ha",95%
same,Mean Visual Injury (%)-21 Days After Application BRAPP,"BRAPP (Brachiaria platyphylla, broadleaf signalgrass), 35 g ae/ha",95%
same,Mean Visual Injury (%)-21 Days After Application BRAPP,"BRAPP (Brachiaria platyphylla, broadleaf signalgrass), 70 g ae/ha",98%
same,GR50 BRAPP,"BRAPP (Brachiaria platyphylla, broadleaf signalgrass), dose to kill or control 50 percent",<4.38 g ae/ha
same,GR90 BRAPP,"BRAPP (Brachiaria platyphylla, broadleaf signalgrass), dose to kill or control 90 percent",22.0 g ae/ha
same,Mean Visual Injury (%)-21 Days After Application CYPDI,"CYPDI (Cyperus difformis, small-flower flatsedge), 4.38 g ae/ha",75%
same,Mean Visual Injury (%)-21 Days After Application CYPDI,"CYPDI (Cyperus difformis, small-flower flatsedge), 8.75 g ae/ha",97%
same,Mean Visual Injury (%)-21 Days After Application CYPDI,"CYPDI (Cyperus difformis, small-flower flatsedge), 17.5 g ae/ha",98%
same,Mean Visual Injury (%)-21 Days After Application CYPDI,"CYPDI (Cyperus difformis, small-flower flatsedge), 35 g ae/ha",100%
same,Mean Visual Injury (%)-21 Days After Application CYPDI,"CYPDI (Cyperus difformis, small-flower flatsedge), 70 g ae/ha",100%
same,GR50 CYPDI,"CYPDI (Cyperus difformis, small-flower flatsedge), dose to kill or control 50 percent",<4.38 g ae/ha
same,GR90 CYPDI,"CYPDI (Cyperus difformis, small-flower flatsedge), dose to kill or control 90 percent",8.8 g ae/ha
same,Mean Visual Injury (%)-21 Days After Application CYPES,"CYPES (Cyperus esculentus, yellow nutsedge), 4.38 g ae/ha",73%
same,Mean Visual Injury (%)-21 Days After Application CYPES,"CYPES (Cyperus esculentus, yellow nutsedge), 8.75 g ae/ha",78%
same,Mean Visual Injury (%)-21 Days After Application CYPES,"CYPES (Cyperus esculentus, yellow nutsedge), 17.5 g ae/ha",85%
same,Mean Visual Injury (%)-21 Days After Application CYPES,"CYPES (Cyperus esculentus, yellow nutsedge), 35 g ae/ha",99%
same,Mean Visual Injury (%)-21 Days After Application CYPES,"CYPES (Cyperus esculentus, yellow nutsedge), 70 g ae/ha",95%
same,GR50 CYPES,"CYPES (Cyperus esculentus, yellow nutsedge), dose to kill or control 50 percent",<4.38 g ae/ha
same,GR90 CYPES,"CYPES (Cyperus esculentus, yellow nutsedge), dose to kill or control 90 percent",27.1 g ae/ha
same,Mean Visual Injury (%)-21 Days After Application CYPIR,"CYPIR (Cyperus iria, rice flatsedge), 4.38 g ae/ha",95%
same,Mean Visual Injury (%)-21 Days After Application CYPIR,"CYPIR (Cyperus iria, rice flatsedge), 8.75 g ae/ha",97%
same,Mean Visual Injury (%)-21 Days After Application CYPIR,"CYPIR (Cyperus iria, rice flatsedge), 17.5 g ae/ha",100%
same,Mean Visual Injury (%)-21 Days After Application CYPIR,"CYPIR (Cyperus iria, rice flatsedge), 35 g ae/ha",100%
same,Mean Visual Injury (%)-21 Days After Application CYPIR,"CYPIR (Cyperus iria, rice flatsedge), 70 g ae/ha",100%
same,GR50 CYPIR,"CYPIR (Cyperus iria, rice flatsedge), dose to kill or control 50 percent",<4.38 g ae/ha
same,GR90 CYPIR,"CYPIR (Cyperus iria, rice flatsedge), dose to kill or control 90 percent",<4.38 g ae/ha
same,Mean Visual Injury (%)-21 Days After Application ECHCG,"ECHCG (Echinochloa crus-galli, barnyardgrass), 4.38 g ae/ha",92%
same,Mean Visual Injury (%)-21 Days After Application ECHCG,"ECHCG (Echinochloa crus-galli, barnyardgrass), 8.75 g ae/ha",92%
same,Mean Visual Injury (%)-21 Days After Application ECHCG,"ECHCG (Echinochloa crus-galli, barnyardgrass), 17.5 g ae/ha",95%
same,Mean Visual Injury (%)-21 Days After Application ECHCG,"ECHCG (Echinochloa crus-galli, barnyardgrass), 35 g ae/ha",98%
same,Mean Visual Injury (%)-21 Days After Application ECHCG,"ECHCG (Echinochloa crus-galli, barnyardgrass), 70 g ae/ha",100%
same,GR50 ECHCG,"ECHCG (Echinochloa crus-galli, barnyardgrass), dose to kill or control 50 percent",<4.38 g ae/ha
same,GR90 ECHCG,"ECHCG (Echinochloa crus-galli, barnyardgrass), dose to kill or control 90 percent",<4.38 g ae/ha
same,Mean Visual Injury (%)-21 Days After Application ECHCO,"ECHCO (Echinochloa colonum, junglerice), 4.38 g ae/ha",80%
same,Mean Visual Injury (%)-21 Days After Application ECHCO,"ECHCO (Echinochloa colonum, junglerice), 8.75 g ae/ha",88%
same,Mean Visual Injury (%)-21 Days After Application ECHCO,"ECHCO (Echinochloa colonum, junglerice), 17.5 g ae/ha",95%
same,Mean Visual Injury (%)-21 Days After Application ECHCO,"ECHCO (Echinochloa colonum, junglerice), 35 g ae/ha",98%
same,Mean Visual Injury (%)-21 Days After Application ECHCO,"ECHCO (Echinochloa colonum, junglerice), 70 g ae/ha",100%
same,GR50 ECHCO,"ECHCO (Echinochloa colonum, junglerice), dose to kill or control 50 percent",<4.38 g ae/ha
same,GR90 ECHCO,"ECHCO (Echinochloa colonum, junglerice), dose to kill or control 90 percent",12.9 g ae/ha
same,Mean Visual Injury (%)-21 Days After Application LEFCH,"LEFCH (Leptochloa chinensis, Chinese sprangletop), 4.38 g ae/ha",3%
same,Mean Visual Injury (%)-21 Days After Application LEFCH,"LEFCH (Leptochloa chinensis, Chinese sprangletop), 8.75 g ae/ha",0%
same,Mean Visual Injury (%)-21 Days After Application LEFCH,"LEFCH (Leptochloa chinensis, Chinese sprangletop), 17.5 g ae/ha",20%
same,Mean Visual Injury (%)-21 Days After Application LEFCH,"LEFCH (Leptochloa chinensis, Chinese sprangletop), 35 g ae/ha",42%
same,Mean Visual Injury (%)-21 Days After Application LEFCH,"LEFCH (Leptochloa chinensis, Chinese sprangletop), 70 g ae/ha",60%
same,GR50 LEFCH,"LEFCH (Leptochloa chinensis, Chinese sprangletop), dose to kill or control 50 percent",53.5 g ae/ha
same,GR90 LEFCH,"LEFCH (Leptochloa chinensis, Chinese sprangletop), dose to kill or control 90 percent",>70 g ae/ha
same,Mean Visual Injury (%)-21 Days After Application ORYSA ‘Clearfield 171’,"ORYSA (Oryza sativa ‘Clearfield 171’, rice), 4.38 g ae/ha",0%
same,Mean Visual Injury (%)-21 Days After Application ORYSA ‘Clearfield 171’,"ORYSA (Oryza sativa ‘Clearfield 171’, rice), 8.75 g ae/ha",12%
same,Mean Visual Injury (%)-21 Days After Application ORYSA ‘Clearfield 171’,"ORYSA (Oryza sativa ‘Clearfield 171’, rice), 17.5 g ae/ha",15%
same,Mean Visual Injury (%)-21 Days After Application ORYSA ‘Clearfield 171’,"ORYSA (Oryza sativa ‘Clearfield 171’, rice), 35 g ae/ha",35%
same,Mean Visual Injury (%)-21 Days After Application ORYSA ‘Clearfield 171’,"ORYSA (Oryza sativa ‘Clearfield 171’, rice), 70 g ae/ha",47%
same,GR50 ORYSA ‘Clearfield 171’,"ORYSA (Oryza sativa ‘Clearfield 171’, rice), dose to kill or control 50 percent",>70 g ae/ha
same,GR90 ORYSA ‘Clearfield 171’,"ORYSA (Oryza sativa ‘Clearfield 171’, rice), dose to kill or control 90 percent",>70 g ae/ha
same,Mean Visual Injury (%)-21 Days After Application ORYSA ‘Wells’,"ORYSA (Oryza sativa ‘Wells’, rice), 4.38 g ae/ha",0%
same,Mean Visual Injury (%)-21 Days After Application ORYSA ‘Wells’,"ORYSA (Oryza sativa ‘Wells’, rice), 8.75 g ae/ha",0%
same,Mean Visual Injury (%)-21 Days After Application ORYSA ‘Wells’,"ORYSA (Oryza sativa ‘Wells’, rice), 17.5 g ae/ha",0%
same,Mean Visual Injury (%)-21 Days After Application ORYSA ‘Wells’,"ORYSA (Oryza sativa ‘Wells’, rice), 35 g ae/ha",10%
same,Mean Visual Injury (%)-21 Days After Application ORYSA ‘Wells’,"ORYSA (Oryza sativa ‘Wells’, rice), 70 g ae/ha",23%
same,GR50 ORYSA ‘Wells’,"ORYSA (Oryza sativa ‘Wells’, rice), dose to kill or control 50 percent",>70 g ae/ha
same,GR90 ORYSA ‘Wells’,"ORYSA (Oryza sativa ‘Wells’, rice), dose to kill or control 90 percent",>70 g ae/ha
same,Mean Visual Injury (%)-21 Days After Application SCPJU,"SCPJU (Scirpus juncoides, Japanese bulrush), 4.38 g ae/ha",72%
same,Mean Visual Injury (%)-21 Days After Application SCPJU,"SCPJU (Scirpus juncoides, Japanese bulrush), 8.75 g ae/ha",100%
same,Mean Visual Injury (%)-21 Days After Application SCPJU,"SCPJU (Scirpus juncoides, Japanese bulrush), 17.5 g ae/ha",100%
same,Mean Visual Injury (%)-21 Days After Application SCPJU,"SCPJU (Scirpus juncoides, Japanese bulrush), 35 g ae/ha",100%
same,Mean Visual Injury (%)-21 Days After Application SCPJU,"SCPJU (Scirpus juncoides, Japanese bulrush), 70 g ae/ha",100%
same,GR50 SCPJU,"SCPJU (Scirpus juncoides, Japanese bulrush), dose to kill or control 50 percent",<4.38 g ae/ha
same,GR90 SCPJU,"SCPJU (Scirpus juncoides, Japanese bulrush), dose to kill or control 90 percent",6.9 g ae/ha
same,Mean Visual Injury (%)-21 Days After Application SEBEX,"SEBEX (Sesbania exaltata, hemp sesbania), 4.38 g ae/ha",100%
same,Mean Visual Injury (%)-21 Days After Application SEBEX,"SEBEX (Sesbania exaltata, hemp sesbania), 8.75 g ae/ha",100%
same,Mean Visual Injury (%)-21 Days After Application SEBEX,"SEBEX (Sesbania exaltata, hemp sesbania), 17.5 g ae/ha",100%
same,Mean Visual Injury (%)-21 Days After Application SEBEX,"SEBEX (Sesbania exaltata, hemp sesbania), 35 g ae/ha",100%
same,Mean Visual Injury (%)-21 Days After Application SEBEX,"SEBEX (Sesbania exaltata, hemp sesbania), 70 g ae/ha",100%
same,GR50 SEBEX,"SEBEX (Sesbania exaltata, hemp sesbania), dose to kill or control 50 percent",<4.38 g ae/ha
same,GR90 SEBEX,"SEBEX (Sesbania exaltata, hemp sesbania), dose to kill or control 90 percent",<4.38 g ae/ha
